The results in this text go back to patent publication EP4467141A1, “PYRAZOLO-QUINOLINES AS SELECTIVE INHIBITORS OF GENOTOXIC STRESS-INDUCED IKK/NF- KB PATHWAYS FOR CANCER THERAPY” (Max-Delbrück-Centrum für Molekulare Medizin in der …, priority 2023, dated 2024).

Test in all cases: Kinase panel study
What all share (type): biochemical
Conditions in all cases: read-out: Percentage of inhibition; for inhibition at 1 µM: 1000nM; for inhibition at 10 µM: 10000nM

Assay [1] concerns the target T1, CDK1/cyclin B (Homo sapiens, UniProt P06493).
T1 construct: purchased Thermo Fisher Scientific
The gist of the method: (§1)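 A commercial kinase profiling service ran the assays according to its ZLyte or Adapta standard protocols. Compound was present at 10 µM or 1 µM, and kinase activity loss was expressed as percent inhibition.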

The target of assay [2] is T2, CDK6/cyclin D1 (Homo sapiens, UniProt Q00534).
T2 construct: purchased Thermo Fisher Scientific
T2 sequence (Q00534 whole entry): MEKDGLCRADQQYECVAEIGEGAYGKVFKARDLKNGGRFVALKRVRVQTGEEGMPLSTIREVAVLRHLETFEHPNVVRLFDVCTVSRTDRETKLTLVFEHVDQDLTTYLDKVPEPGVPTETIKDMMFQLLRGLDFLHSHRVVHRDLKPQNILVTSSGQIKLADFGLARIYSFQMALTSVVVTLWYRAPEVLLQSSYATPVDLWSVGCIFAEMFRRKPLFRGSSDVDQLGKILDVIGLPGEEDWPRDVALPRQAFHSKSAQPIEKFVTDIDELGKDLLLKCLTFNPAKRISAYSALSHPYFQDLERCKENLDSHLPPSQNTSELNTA
T2 sequence (P24385 whole entry partner): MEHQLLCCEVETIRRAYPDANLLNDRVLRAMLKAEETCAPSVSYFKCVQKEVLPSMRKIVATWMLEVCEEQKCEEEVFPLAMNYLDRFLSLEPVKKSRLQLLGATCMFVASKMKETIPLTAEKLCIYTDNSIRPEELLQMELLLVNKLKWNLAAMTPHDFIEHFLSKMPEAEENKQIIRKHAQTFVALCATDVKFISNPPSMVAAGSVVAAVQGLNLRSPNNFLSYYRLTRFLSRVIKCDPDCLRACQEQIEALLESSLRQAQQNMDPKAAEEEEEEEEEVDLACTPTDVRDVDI
The gist of the method: as §1

Assay [3] concerns the target T3, KIT V560G (Homo sapiens, UniProt P10721, V560G).
T3 construct: purchased Thermo Fisher Scientific
The gist of the method:
as §1

Assay [4] deals with T4, NEK9 (Homo sapiens, UniProt Q8TD19).
T4 construct: purchased Thermo Fisher Scientific
T4 sequence (Q8TD19 1-979): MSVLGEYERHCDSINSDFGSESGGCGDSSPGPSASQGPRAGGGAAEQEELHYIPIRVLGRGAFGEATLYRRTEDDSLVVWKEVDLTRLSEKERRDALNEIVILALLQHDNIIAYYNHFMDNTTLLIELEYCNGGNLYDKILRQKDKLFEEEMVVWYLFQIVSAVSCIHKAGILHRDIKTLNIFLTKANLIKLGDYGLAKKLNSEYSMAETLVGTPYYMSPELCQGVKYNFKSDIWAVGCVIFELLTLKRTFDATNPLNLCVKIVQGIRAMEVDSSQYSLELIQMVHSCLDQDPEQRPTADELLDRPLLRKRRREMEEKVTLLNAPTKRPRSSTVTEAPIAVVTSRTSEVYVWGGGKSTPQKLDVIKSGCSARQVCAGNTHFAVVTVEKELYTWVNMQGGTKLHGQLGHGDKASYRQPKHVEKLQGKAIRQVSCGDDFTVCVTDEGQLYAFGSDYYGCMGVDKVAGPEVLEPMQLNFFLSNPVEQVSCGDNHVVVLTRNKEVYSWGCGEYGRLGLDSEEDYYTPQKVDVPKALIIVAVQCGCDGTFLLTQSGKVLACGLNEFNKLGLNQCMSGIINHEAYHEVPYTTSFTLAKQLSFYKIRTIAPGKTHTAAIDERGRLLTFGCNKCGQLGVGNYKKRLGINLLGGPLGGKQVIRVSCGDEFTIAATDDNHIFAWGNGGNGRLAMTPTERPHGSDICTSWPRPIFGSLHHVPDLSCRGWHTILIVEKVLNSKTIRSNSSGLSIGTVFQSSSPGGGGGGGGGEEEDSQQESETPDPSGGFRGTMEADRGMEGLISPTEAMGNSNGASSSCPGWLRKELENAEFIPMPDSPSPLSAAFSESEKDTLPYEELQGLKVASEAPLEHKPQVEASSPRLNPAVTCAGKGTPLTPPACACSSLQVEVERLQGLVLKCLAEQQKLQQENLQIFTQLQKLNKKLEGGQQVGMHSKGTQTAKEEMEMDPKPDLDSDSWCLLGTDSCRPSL
In a few lines: as §1

For assay [5], the target named is T5, PDGFRA (PDGFR alpha) (Homo sapiens, UniProt P16234).
T5 construct: purchased Thermo Fisher Scientific
T5 sequence (P16234 24-1089): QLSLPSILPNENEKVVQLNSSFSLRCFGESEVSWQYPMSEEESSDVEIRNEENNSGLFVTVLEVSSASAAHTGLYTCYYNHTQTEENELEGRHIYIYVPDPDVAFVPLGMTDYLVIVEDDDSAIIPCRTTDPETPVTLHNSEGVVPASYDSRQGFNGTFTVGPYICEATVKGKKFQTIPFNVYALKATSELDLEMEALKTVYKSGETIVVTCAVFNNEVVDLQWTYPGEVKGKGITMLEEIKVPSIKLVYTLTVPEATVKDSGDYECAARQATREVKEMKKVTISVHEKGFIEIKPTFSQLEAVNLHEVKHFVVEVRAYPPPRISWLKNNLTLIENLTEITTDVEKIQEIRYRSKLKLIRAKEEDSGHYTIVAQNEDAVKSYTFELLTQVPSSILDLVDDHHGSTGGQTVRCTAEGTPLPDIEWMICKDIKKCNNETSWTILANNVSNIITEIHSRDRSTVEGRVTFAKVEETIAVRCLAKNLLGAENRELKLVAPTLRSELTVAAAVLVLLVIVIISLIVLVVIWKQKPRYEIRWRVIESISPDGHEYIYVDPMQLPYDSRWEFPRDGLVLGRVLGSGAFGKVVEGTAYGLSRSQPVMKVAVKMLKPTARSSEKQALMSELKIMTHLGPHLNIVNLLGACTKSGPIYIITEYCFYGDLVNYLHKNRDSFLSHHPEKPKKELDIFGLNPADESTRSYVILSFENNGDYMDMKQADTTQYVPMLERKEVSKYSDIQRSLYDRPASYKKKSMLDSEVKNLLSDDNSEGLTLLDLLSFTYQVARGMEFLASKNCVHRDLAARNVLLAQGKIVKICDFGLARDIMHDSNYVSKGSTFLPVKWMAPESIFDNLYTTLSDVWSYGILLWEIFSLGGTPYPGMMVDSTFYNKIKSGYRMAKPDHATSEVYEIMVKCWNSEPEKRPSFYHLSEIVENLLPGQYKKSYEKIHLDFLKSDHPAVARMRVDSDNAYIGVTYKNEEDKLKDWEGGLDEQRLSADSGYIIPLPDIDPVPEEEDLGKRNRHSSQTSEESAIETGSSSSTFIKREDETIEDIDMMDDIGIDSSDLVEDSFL
The gist of the method:
as §1

For assay [6], the target named is T6, STK22B (TSSK2) (Homo sapiens, UniProt Q96PF2).
T6 construct: purchased Thermo Fisher Scientific
T6 sequence (Q96PF2 1-358): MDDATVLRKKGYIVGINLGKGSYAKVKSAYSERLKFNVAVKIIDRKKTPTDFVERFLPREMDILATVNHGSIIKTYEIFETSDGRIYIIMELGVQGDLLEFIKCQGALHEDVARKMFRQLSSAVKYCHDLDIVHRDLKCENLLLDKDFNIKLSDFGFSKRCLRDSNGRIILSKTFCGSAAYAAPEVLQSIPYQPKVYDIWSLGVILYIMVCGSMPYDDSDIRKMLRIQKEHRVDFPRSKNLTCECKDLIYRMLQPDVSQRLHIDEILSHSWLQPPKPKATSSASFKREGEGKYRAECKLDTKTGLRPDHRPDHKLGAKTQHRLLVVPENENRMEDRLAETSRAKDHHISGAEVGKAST
The gist of the method: as §1

In assay [7] the target is T7, STK22D (TSSK1) (Homo sapiens, UniProt Q9BXA7).
T7 construct: purchased Thermo Fisher Scientific
T7 sequence (Q9BXA7 1-367): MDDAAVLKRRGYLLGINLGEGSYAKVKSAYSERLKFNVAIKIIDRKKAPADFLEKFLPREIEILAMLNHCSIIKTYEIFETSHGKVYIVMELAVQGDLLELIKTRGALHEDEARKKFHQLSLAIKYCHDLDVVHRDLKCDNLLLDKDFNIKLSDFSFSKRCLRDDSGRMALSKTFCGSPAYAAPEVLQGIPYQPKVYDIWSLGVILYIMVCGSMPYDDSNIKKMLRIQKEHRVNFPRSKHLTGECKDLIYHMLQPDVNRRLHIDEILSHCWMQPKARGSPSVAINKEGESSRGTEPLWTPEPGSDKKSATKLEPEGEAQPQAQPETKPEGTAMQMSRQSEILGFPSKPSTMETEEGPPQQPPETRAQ
The gist of the method: as §1

T1 sequence (P06493 whole entry): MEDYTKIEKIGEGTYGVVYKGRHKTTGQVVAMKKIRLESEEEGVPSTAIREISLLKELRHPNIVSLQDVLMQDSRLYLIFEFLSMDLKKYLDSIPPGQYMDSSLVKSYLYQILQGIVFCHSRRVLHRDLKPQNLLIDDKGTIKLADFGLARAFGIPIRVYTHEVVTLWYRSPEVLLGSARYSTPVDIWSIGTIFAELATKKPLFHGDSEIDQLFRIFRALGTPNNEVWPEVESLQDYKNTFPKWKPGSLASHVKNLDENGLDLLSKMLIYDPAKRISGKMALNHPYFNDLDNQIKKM
T1 sequence (P14635 whole entry partner): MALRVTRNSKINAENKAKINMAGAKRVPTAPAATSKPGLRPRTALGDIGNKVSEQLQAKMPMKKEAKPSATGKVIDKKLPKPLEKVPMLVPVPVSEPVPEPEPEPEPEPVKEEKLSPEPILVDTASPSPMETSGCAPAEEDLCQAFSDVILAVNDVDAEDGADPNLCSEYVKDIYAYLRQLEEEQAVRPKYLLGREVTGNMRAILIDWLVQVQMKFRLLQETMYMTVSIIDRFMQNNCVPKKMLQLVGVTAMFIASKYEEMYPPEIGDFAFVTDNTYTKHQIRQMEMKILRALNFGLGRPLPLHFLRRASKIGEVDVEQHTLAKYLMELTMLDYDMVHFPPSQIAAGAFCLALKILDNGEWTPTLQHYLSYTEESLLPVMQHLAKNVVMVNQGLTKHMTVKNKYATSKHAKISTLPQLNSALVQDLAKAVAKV
T3 sequence (P10721 26-976 V560G): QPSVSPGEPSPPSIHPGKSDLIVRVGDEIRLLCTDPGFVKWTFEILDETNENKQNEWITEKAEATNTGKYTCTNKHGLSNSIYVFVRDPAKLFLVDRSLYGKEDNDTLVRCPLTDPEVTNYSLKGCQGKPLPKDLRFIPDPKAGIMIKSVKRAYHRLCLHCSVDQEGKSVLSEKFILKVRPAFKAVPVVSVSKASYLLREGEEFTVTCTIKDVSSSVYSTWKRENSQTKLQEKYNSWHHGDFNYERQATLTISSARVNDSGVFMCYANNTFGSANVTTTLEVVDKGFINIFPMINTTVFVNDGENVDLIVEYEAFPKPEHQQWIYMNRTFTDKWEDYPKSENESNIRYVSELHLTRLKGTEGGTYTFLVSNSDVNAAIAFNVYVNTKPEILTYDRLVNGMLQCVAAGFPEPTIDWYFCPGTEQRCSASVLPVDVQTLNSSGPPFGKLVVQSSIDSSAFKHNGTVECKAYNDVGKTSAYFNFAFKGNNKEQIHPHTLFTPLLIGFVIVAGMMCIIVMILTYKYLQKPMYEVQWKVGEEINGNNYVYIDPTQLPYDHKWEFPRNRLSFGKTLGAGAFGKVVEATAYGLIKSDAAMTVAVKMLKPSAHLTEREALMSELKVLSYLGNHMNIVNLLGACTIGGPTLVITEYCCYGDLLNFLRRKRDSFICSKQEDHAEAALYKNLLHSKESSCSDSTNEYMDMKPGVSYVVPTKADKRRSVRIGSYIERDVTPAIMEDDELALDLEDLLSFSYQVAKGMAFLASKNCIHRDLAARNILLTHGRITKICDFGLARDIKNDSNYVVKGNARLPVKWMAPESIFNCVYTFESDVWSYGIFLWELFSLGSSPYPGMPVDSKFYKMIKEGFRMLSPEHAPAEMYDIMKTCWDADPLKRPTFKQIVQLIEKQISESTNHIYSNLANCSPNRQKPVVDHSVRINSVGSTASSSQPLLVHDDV

The inhibition is the change of the read-out against control, counted positive when it falls. Regarding `COc1ccc2c(c1OC)c(=O)n1c3ccc(O)cc3c3ccnc2c31` [MW01, 5-Hydroxy-10,11-dimethoxy-9H-benzo[c]indolo[3,2,1-ij][1,5]naphthyridin-9-one], the inhibition at 1 µM amounted to 20% in assay [1]; 1% in assay [2]; 12% in assay [3]; 4% in assay [4]; 20% in assay [5]; 11% in assay [6]. The inhibition at 1 µM in assay [7] amounted to 11%. Further, the inhibition at 10 µM in assay [1] is 46%; in assay [2] it was -8%; in assay [3] it was 7%; in assay [4], 9%; in assay [5] it was 47%; in assay [6], 20%. Further, the inhibition at 10 µM in assay [7] worked out at 22%.
`COc1ccc2cc3c(N)nn(C(=O)c4cccc(N(C)C)c4)c3nc2c1` [MW05, (3-Amino-7-methoxypyrazolo[3,4-b]quinolin-1-yl)-[3-(dimethylamino)phenyl]methanone]: the inhibition at 1 µM stood at 19% in assay [1]; 2% in assay [2]; 11% in assay [3]; 6% in assay [4]; 7% in assay [5]; 11% in assay [6]. Further, the inhibition at 1 µM in assay [7] amounted to 2%. Further, the inhibition at 10 µM turned out to be 57% in assay [1]; 0% in assay [2]; 2% in assay [3]; 5% in assay [4]; 6% in assay [5]; 2% in assay [6]. Moreover, the inhibition at 10 µM in assay [7] amounted to 5%.
